Measured values from patent publication US20080287375A1, “Selective Glycosidase Inhibitors, Methods of Making Inhibitors, and Uses Thereof” (SIMON FRASER UNIVERSITY, priority 2005, published 2008).
“Also recorded” adds a separate entry of the source. Read-outs that look alike come from different tables or passages of the source.

Columns and labels:
O-GlcNAcase [1] = molecular target: T1, O-GlcNAcase (Homo sapiens, UniProt O60502)
T1 sequence (O60502 1-916): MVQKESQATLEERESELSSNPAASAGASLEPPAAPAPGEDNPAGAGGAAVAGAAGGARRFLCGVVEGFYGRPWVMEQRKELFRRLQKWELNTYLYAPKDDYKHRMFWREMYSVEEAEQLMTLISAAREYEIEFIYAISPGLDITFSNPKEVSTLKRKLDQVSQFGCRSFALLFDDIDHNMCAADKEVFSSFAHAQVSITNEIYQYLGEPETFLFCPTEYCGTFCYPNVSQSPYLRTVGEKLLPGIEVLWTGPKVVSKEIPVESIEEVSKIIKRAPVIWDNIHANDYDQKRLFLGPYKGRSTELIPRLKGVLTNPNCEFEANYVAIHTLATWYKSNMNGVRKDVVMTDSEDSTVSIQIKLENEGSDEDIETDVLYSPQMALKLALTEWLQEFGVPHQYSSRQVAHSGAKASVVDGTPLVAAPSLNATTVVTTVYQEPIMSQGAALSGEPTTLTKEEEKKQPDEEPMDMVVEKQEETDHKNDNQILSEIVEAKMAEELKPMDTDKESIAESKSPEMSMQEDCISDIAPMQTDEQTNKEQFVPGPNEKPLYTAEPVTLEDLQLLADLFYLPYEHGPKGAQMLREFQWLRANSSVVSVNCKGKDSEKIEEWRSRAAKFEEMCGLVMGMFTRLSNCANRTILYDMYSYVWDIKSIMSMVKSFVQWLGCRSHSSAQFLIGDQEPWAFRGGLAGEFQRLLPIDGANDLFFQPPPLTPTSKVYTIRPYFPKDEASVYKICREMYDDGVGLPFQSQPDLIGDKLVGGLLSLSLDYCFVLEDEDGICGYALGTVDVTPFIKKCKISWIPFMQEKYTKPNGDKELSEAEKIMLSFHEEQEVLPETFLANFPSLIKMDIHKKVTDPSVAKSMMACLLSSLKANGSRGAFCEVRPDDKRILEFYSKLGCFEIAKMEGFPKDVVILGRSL

[2] = molecular target: human placental β-hexosaminidase; test: Inhibition of β-hexosaminidase, substrate MU-GlcNAc (5), Dixon plots
O-GlcNAcase [3] = molecular target: T1, O-GlcNAcase; test: Time dependent inactivation of O-GlcNAcase by STZ
O-GlcNAcase [4] = settings: read-out: IC50, O-GlcNAcase, previous determinations; cited from earlier work
[5] = Decomposition of STZ in D2O followed by NMR; settings: room temperature
β-hexosaminidase = test: Time dependent inactivation of β-hexosaminidase by STZ; settings: 10 mM STZ, pH 4.25, over six hours
[6] = tested on: O-GlcNAc-modified proteins in COS-7 cells; test: Western blot of O-GlcNAc-modified proteins in COS-7 cells cultured with inhibitors; format: cell-based; settings: 50 μM inhibitor, 40 hours, Western blot
Description: (§1) COS-7 cells were cultured in DMEM medium (Invitrogen) supplemented with 5-10% FBS (Invitrogen). Aliquots of inhibitors (50 μL of a stock in 95% ethanol) were delivered onto tissue culture plates and the ethanol was evaporated. The cells were incubated at 37° C. for 40 hours at which time they reached approximately 80% confluence. […] COS-7 cells were cultured to 25% confluence in 5% FBS and an aliquot (100 μL) of inhibitor dissolved in media and filter sterilized was added to each plate to yield a final concentration of 50 μM of inhibitor. COS-7 cells (2×10 cm plates) were harvested at the appropriate times by scraping and were pooled by centrifugation (200×g, 10 min). Cells were washed once with PBS, pH 7.0 (10 mL) and pelleted (200×g, 10 min). The cells could be frozen at −80° C. at this point. Control cultures without inhibitors were treated in the same manner.
A culture of control cells was treated in the same manner as follows but the cultures contained no inhibitor. Cells were harvested as described above. Frozen cells were thawed at 4° C., and cold lysis buffer (1 mL of 50 mM Tris, pH 8.0 containing 150 mM NaCl, 1 mM EDTA, 1 mM PMSF, 1% NP-40, 0.5% sodium deoxycholate, and 1 mM of inhibitor 90) was added. After 10 minutes at 4° C. the solution was centrifuged at 14,000 rpm in an Eppendorf 5415C microcentrifuge and the supernatant was collected. SDS/PAGE loading buffer was added to an aliquot (15 μL) of each sample, and after heating at 96° C. aliquots were loaded onto 10% or 12% Tris-HCl polyacrylamide gels. After electrophoresis, the samples were electroblotted to nitrocellulose membrane (0.45 μm, Bio-Rad). Transfer was verified by visual inspection of the transfer of prestained markers (Dual Colour Precision Plus Protein Standard—Biorad). The membrane was blocked by using 5% BSA (fraction V, Sigma) in PBS (blocking buffer A for samples probed with mouse anti-O-GlcNAc monoclonal IgM antibody (MAb CTD 110.6—Covance)) or 5% low-fat dry powdered milk (blocking buffer B for samples probed with anti-β-actin), pH 7.4, containing 0.1% Tween 20 for 1 h at room temperature or overnight at 4° C. The blocking solution was decanted, and a solution of blocking buffer A containing MAb CTD 110.6 (1:2500 of the stock) or blocking buffer B containing mouse monoclonal anti-β-actin IgG (Clone AC-40—Sigma) was added (1:1000 dilution) as appropriate. The membrane was incubated at room temperature for 1 h or overnight at 4° C. after which the blocking buffer was decanted and the membrane was rinsed with PBS, pH 7.4, containing 0.1% Tween 20 (wash buffer). Membranes were then rinsed for 2×5 min and 3×15 min with wash buffer. For immunological detection of O-GlcNAc, the membrane was incubated in blocking buffer A for 1 hour at RT and, after washing, the membrane was incubated with a secondary goat anti-mouse-IgM-HRP-conjugate (1:2500, Santa Cruz Biotech) for one hour at RT or 4° C. overnight in blocking solution. For detection of β-actin levels, the membrane was incubated with a secondary goat anti-mouse-IgG-HRP conjugate (1:100000, Sigma) for one hour at RT or 4° C. overnight in blocking solution B. Membranes were washed and detection of membrane bound goat anti-mouse-IgG-HRP conjugate was accomplished by chemiluminescent detection using the SuperSignal West Pico Chemiluminescent Detection Kit (Pierce) and film (Kodak Biomax MR).

COS-7 cells = test: Proliferation rate and morphology of COS-7 cells incubated with inhibitors; format: cell-based; settings: 50 μM inhibitor
Description: as §1

| SMILES | inhibition of O-GlcNAcase, in words (O-GlcNAcase [1]) | selectivity for O-GlcNAcase over β-hexosaminidase, in words (O-GlcNAcase [1]) | selectivity ratio for O-GlcNAcase over β-hexosaminidase (O-GlcNAcase [1]) | Selectivity Ratio (β-Hex KI/O-GlcNAcase KI) (O-GlcNAcase [1]; Table 2) | Ki (O-GlcNAcase [1]; read-out: KI, O-GlcNAcase, pH 6.5) | Ki ([2]; read-out: KI, β-hexosaminidase, human lysosomal β-hexosaminidase) | Ki ([2]; read-out: β-Hexosaminidase KI, Table 2, substrate 5 at 0.64 mM, pH 4.25, Dixon plots) | time dependent inactivation of O-GlcNAcase (O-GlcNAcase [3]; 10 mM STZ, pH 6.5, over six hours) | expected ratio of reaction velocities VControl/VSTZ, O-GlcNAcase (O-GlcNAcase [3]; calculated assuming competitive inhibition, KI=1.5 mM, 1.2 mM STZ in assay) | IC50 (O-GlcNAcase [4]) | half-life in aqueous solution (D2O) [5] | time dependent inactivation of β-hexosaminidase (β-hexosaminidase) | binding more tightly than GlcNAc, β-hexosaminidase [2] | cellular levels of O-GlcNAc-modified proteins compared to control [6] | proliferation rate or morphology compared to control cells (COS-7 cells) |
| --- | --- | --- | --- | --- | --- | --- | --- | --- | --- | --- | --- | --- | --- | --- | --- |
| CN(N=O)C(=O)N[C@H]1C(O)O[C@H](CO)[C@@H](O)[C@@H]1O (mixture of isomers) [STZ, streptozotocin] | poor inhibitor | moderate selectivity | 31 fold | 31 | 1.5 mM | 47 mM | 47 mM | did not act as a time dependent inactivator; also recorded: does not show a time dependent inactivation | 1.17 | 1 to 2.5 mM | greater than 6 hours | did not act as a time dependent inactivator; also recorded: does not show a time dependent inactivation |  |  |  |
| CC1=N[C@@H]2[C@@H](O)[C@H](O)[C@@H](CO)O[C@@H]2S1 [Compound 9a, 2′-methyl-α-D-glucopyrano-[2,1-d]-Δ2′-thiazoline, reference compound] |  |  |  |  |  |  |  |  |  |  |  |  | 17000 fold | Marked increases; also recorded: increase in cellular levels of O-GlcNAc-modified proteins | no abnormalities in proliferation rate or morphology |
| CC(C)CC1=NC2C(OC(CO)C(O)C2O)S1 [Compound 9g, 1,2-dideoxy-2′-isobutyl-α-D-glucopyranoso-[2,1-d]-42′-triazoline D] | good inhibitors |  |  |  |  |  |  |  |  |  |  |  |  | Marked increases; also recorded: increase in cellular levels of O-GlcNAc-modified proteins | no abnormalities in proliferation rate or morphology |
